From US12655116B2, “Substituted isophthalic acid diamides” (Bayer Aktiengesellschaft, priority 2020, dated 2026)

What was measured:
STEME [1] = experiment: Pre-emergence herbicidal action against STEME; format: in vivo, Stellaria media
Description: Seeds of monocotyledonous and dicotyledonous weed plants and crop plants are laid out in sandy loam soil in wood-fiber pots and covered with soil. The compounds of the invention, formulated in the form of wettable powders (WP) or as emulsion concentrates (EC), are then applied to the surface of the covering soil in the form of an aqueous suspension or emulsion at a water application rate equivalent to 600 to 800 l/ha, with addition of 0.2% wetting agent. After the treatment, the pots are placed in a greenhouse and kept under good growth conditions for the trial plants. The damage to the test plants is scored visually after a test period of 3 weeks by comparison with untreated controls (herbicidal activity in percent (%): 100% activity=the plants have died, 0% activity=like control plants). […] The tables below illustrate, in an illustrative manner, the post-emergence herbicidal action of the compounds of the invention, the herbicidal activity being stated in percent.

VIOTR [2] = experiment: Pre-emergence herbicidal action against VIOTR; format: in vivo, Viola tricolor
Summary of the method: (§1)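 Seeds sown in sandy loam, soil-covered; compound sprayed on soil surface pre-emergence. Application: WP/EC, 600–800 l/ha, 0.2% wetting agent. Readout: visual % damage at 3 weeks.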

AMARE [3] = experiment: Post-emergence herbicidal action against AMARE; format: in vivo, Amaranthus retroflexus; conditions: 20 g/ha, visual assessment about 3 weeks after treatment, 100% = plants have died, 0% = like control plants
Summary of the method: (§2)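 Percent herbicidal action is rated by eye about 3 weeks after treatment against untreated controls, where 100% means dead plants and 0% means like controls. Plants in sandy loam are sprayed on green parts at the one-leaf stage with aqueous WP or EC preparations at 600 to 800 l/ha plus 0.2% wetting agent.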

MATIN [4] = experiment: Pre-emergence herbicidal action against MATIN; format: in vivo, Matricaria inodora
Summary of the method: as §1

STEME [5] = experiment: Post-emergence herbicidal action against STEME; format: in vivo, Stellaria media
Procedure: Seeds of monocotyledonous and dicotyledonous weed and crop plants are laid out in sandy loam soil in wood-fiber pots, covered with soil and cultivated in a greenhouse under good growth conditions. 2 to 3 weeks after sowing, the test plants are treated at the one-leaf stage. The compounds of the invention, formulated in the form of wettable powders (WP) or as emulsion concentrates (EC), are then sprayed onto the green parts of the plants in the form of an aqueous suspension or emulsion at a water application rate equivalent to 600 to 800 l/ha, with addition of 0.2% wetting agent. After the test plants have been left to stand in the greenhouse under optimal growth conditions for about 3 weeks, the action of the preparations is assessed visually in comparison to untreated controls (herbicidal action in percent (%): 100% activity=the plants have died, 0% activity=like control plants). […] The tables below illustrate, in an illustrative manner, the post-emergence herbicidal action of the compounds of the invention, the herbicidal activity being stated in percent.

VIOTR [6] = experiment: Post-emergence herbicidal action against VIOTR; format: in vivo, Viola tricolor
Summary of the method: as §2

ABUTH [7] = experiment: Pre-emergence herbicidal action against ABUTH; format: in vivo, Abutilon theophrasti; conditions: for Pre-emergence action against ABUTH (herbicidal activity): 80 g/ha, scored visually after 3 weeks vs untreated controls (100% = plants have died, 0% = like control plants); for Pre-emergence action against ABUTH (herbicidal activity in percent): dosage 20 g/ha, scored visually after 3 weeks vs untreated controls, 100% = plants have died, 0% = like control plants
Summary of the method: as §1

AVEFA = experiment: Pre-emergence herbicidal action against AVEFA; format: in vivo, Avena fatua; conditions: 80 g/ha, pre-emergence
Summary of the method: as §1

AMARE [8] = experiment: Pre-emergence herbicidal action against AMARE; format: in vivo, Amaranthus retroflexus
Summary of the method: as §1

PHBPU = experiment: Post-emergence herbicidal action against PHBPU; format: in vivo, Pharbitis purpurea
Summary of the method: as §2

ECHCG [9] = experiment: Post-emergence herbicidal action against ECHCG; format: in vivo, Echinochloa crus-galli
Summary of the method: as §2

ECHCG [10] = experiment: Pre-emergence herbicidal action against ECHCG; format: in vivo, Echinochloa crus-galli; conditions: 80 g/ha
Summary of the method: as §1

SETVI [11] = experiment: Post-emergence herbicidal action against SETVI; format: in vivo, Setaria viridis
Summary of the method: as §2

VERPE [12] = experiment: Post-emergence herbicidal action against VERPE; format: in vivo, Veronica persica; conditions: 20 g/ha
Summary of the method: as §2

DIGSA [13] = experiment: Pre-emergence herbicidal action against DIGSA; format: in vivo, Digitaria sanguinalis
Summary of the method: as §1

ABUTH [14] = experiment: Post-emergence herbicidal action against ABUTH; format: in vivo, Abutilon theophrasti; conditions: visual assessment about 3 weeks after treatment vs untreated controls
Summary of the method: as §2

ALOMY [15] = experiment: Post-emergence herbicidal action against ALOMY; format: in vivo, Alopecurus myosuroides; conditions: dosage 20 g/ha, visual assessment about 3 weeks after treatment vs untreated controls
Summary of the method: as §2

SETVI [16] = experiment: Pre-emergence herbicidal action against SETVI; format: in vivo, Setaria viridis; conditions: dosage 80 g/ha
Summary of the method: as §1

MATIN [17] = experiment: Post-emergence herbicidal action against MATIN; format: in vivo, Matricaria inodora; conditions: dosage 20 g/ha
Summary of the method: as §2

VERPE [18] = experiment: Pre-emergence herbicidal action against VERPE; format: in vivo, Veronica persica; conditions: dosage 80 g/ha
Summary of the method: as §1

DIGSA [19] = experiment: Post-emergence herbicidal action against DIGSA; format: in vivo, Digitaria sanguinalis; conditions: for Post-emergence action against DIGSA in %: 5 g/ha; for Post-emergence action against DIGSA: 20 g/ha
Summary of the method: as §2

ALOMY [20] = experiment: Pre-emergence herbicidal action against ALOMY; format: in vivo, Alopecurus myosuroides; conditions: 80 g/ha, pre-emergence, scored visually after 3 weeks vs untreated controls (100% = plants have died, 0% = like control plants)
Summary of the method: as §1

[21] = 20 g/ha, scored visually after 3 weeks vs untreated controls, 100% = plants have died, 0% = like control plants
[22] = 80 g/ha, scored visually after 3 weeks vs untreated controls (100% = plants have died, 0% = like control plants)

Row | SMILES | Pre-emergence action against STEME in % (STEME [1]; dosage 20 g/ha) | Pre-emergence action against STEME in % (STEME [1]; dosage 80 g/ha) | Pre-emergence action against VIOTR in % (VIOTR [2]; dosage 80 g/ha) | Post-emergence action at 20 g/ha against AMARE in % (AMARE [3]) | Pre-emergence action against MATIN in % (MATIN [4]; dosage 20 g/ha) | Pre-emergence action against MATIN in % (MATIN [4]; dosage 80 g/ha) | Post-emergence action against STEME in % (STEME [5]; 20 g/ha) | Pre-emergence action against ABUTH (herbicidal activity) (ABUTH [7]) | Pre-emergence action against AMARE in % (AMARE [8]; [21]) | Pre-emergence action against AMARE in % (AMARE [8]; [22]) | Post-emergence action against ECHCG in % (ECHCG [9]; dosage 20 g/ha) | Pre-emergence action against ECHCG in % (ECHCG [10]) | Post-emergence action against SETVI in % (SETVI [11]; dosage 5 g/ha) | Post-emergence action against SETVI in % (SETVI [11]; dosage 20 g/ha) | Pre-emergence action against DIGSA in % (DIGSA [13]; dosage 20 g/ha) | Pre-emergence action against DIGSA in % (DIGSA [13]; dosage 80 g/ha) | Post-emergence action against ABUTH in % (ABUTH [14]; dosage 5 g/ha) | Post-emergence action against ABUTH in % (ABUTH [14]; dosage 20 g/ha) | Pre-emergence action against SETVI in % (SETVI [16]) | Pre-emergence action against ABUTH (herbicidal activity in percent) (ABUTH [7]) | also measured
1 | CCn1nnnc1NC(=O)c1ccc(S(C)(=O)=O)c(C(=O)NC2CC2)c1Cl [Example 2-125] | 80% | 100% | 100% | 80% | 80% | 100% | 80% | 100% | 80% | 100% | – | – | – | – | – | – | – | – | – | – | Post-emergence action against VIOTR in % (VIOTR [6]; 5 g/ha): 100%; Post-emergence action against VIOTR in % (VIOTR [6]; 20 g/ha): 100%; Pre-emergence action against AVEFA in % (AVEFA): 100%
2 | CNC(=O)c1c(C(F)(F)F)ccc(C(=O)Nc2nnco2)c1SC [Example 5-58] | 100% | 100% | 100% | 90% | 90% | 100% | 90% | 100% | 100% | 100% | 90% | 90% | 80% | 100% | 90% | 100% | 90% | 90% | 100% | 90% | Post-emergence action against PHBPU in % (PHBPU; dosage 5 g/ha): 80%; Post-emergence action against PHBPU in % (PHBPU; dosage 20 g/ha): 90%; Post-emergence action against ECHCG in % (ECHCG [9]; dosage 5 g/ha): 80%; Pre-emergence action against VIOTR in % (VIOTR [2]; dosage 20 g/ha): 90%; Post-emergence action against VERPE in % (VERPE [12]): 80%; Post-emergence action against ALOMY in % (ALOMY [15]): 80%; Post-emergence action against STEME in % (STEME [5]; dosage 5 g/ha): 90%; Post-emergence action against VIOTR in % (VIOTR [6]; 5 g/ha): 80%; Post-emergence action against VIOTR in % (VIOTR [6]; 20 g/ha): 80%; Post-emergence action against MATIN in % (MATIN [17]): 80%; Pre-emergence action against VERPE in % (VERPE [18]): 80%; Pre-emergence action against AVEFA in % (AVEFA): 80%; Post-emergence action against DIGSA in % (DIGSA [19]): 90%; Post-emergence action against DIGSA (DIGSA [19]): 100%
3 | NC(=O)c1c(C(F)(F)F)ccc(C(=O)Nc2nnco2)c1Cl [Example 5-253] | – | 90% | 90% | 80% | – | – | 80% | 100% | 100% | 100% | 80% | – | 80% | 80% | 80% | 90% | 90% | 90% | 80% | 90% | Post-emergence action against DIGSA (DIGSA [19]): 80%
4 | Cc1nnc(NC(=O)c2ccc(C(F)F)c(C(=O)NC3CC3)c2C)o1 [Example 6-33] | – | – | 100% | 90% | 80% | 90% | 80% | 90% | 90% | 100% | 80% | 100% | 80% | 80% | 80% | 100% | – | 80% | 100% | – | –
5 | CCc1c(C(=O)Nc2nnc(C)o2)ccc(C(F)(F)F)c1C(=O)NC1CC1 [Example 6-212] | 80% | 90% | – | 90% | 80% | 90% | 90% | 90% | 90% | 90% | 90% | 90% | – | 80% | 100% | 100% | 80% | 90% | 90% | 80% | Post-emergence action against ECHCG in % (ECHCG [9]; dosage 5 g/ha): 90%; Pre-emergence action against ALOMY (herbicidal activity) (ALOMY [20]): 80%; Post-emergence action against ALOMY in % (ALOMY [15]): 80%; Post-emergence action against STEME in % (STEME [5]; dosage 5 g/ha): 80%; Post-emergence action against DIGSA in % (DIGSA [19]): 80%; Post-emergence action against DIGSA (DIGSA [19]): 90%
